Laboratory results from patent US4567165A, “N-Methanesulfonic acid derivatives of 3-demethoxyistamycin B” (Zaidan Hojin Biseibutsu Kagaku Kenkyu Kai, priority 1984, dated 1986).
Values after ≈ are worked out from the molar mass of the structure shown.

Experiments:
[1] = tested on: Escherichia coli JR66/W677; assay: Minimum inhibitory concentration, standard serial dilution method on Mueller-Hinton agar; assay type: cell-based; settings: 37° C., 17 hours
Excerpt: (§1) Minimum inhibitory concentrations (mcg/ml) of the parent 3-demethoxyistamycin B were also estimated in the same manner for the comparison purpose and also are shown in Table 1.

[2] = tested on: Pseudomonas aeruginosa GN315; assay: as above; assay type: cell-based; settings: 37° C., 17 hours
Excerpt: as §1

[3] = tested on: Pseudomonas aeruginosa H9; assay: as above; assay type: cell-based; settings: 37° C., 17 hours
Excerpt: as §1

[4] = tested on: Pseudomonas aeruginosa TI-13; assay: as above; assay type: cell-based; settings: 17 hours; for Minimum Inhibitory concentration: 37° C.
Excerpt: as §1

Serratia marcescens = assay: as above; assay type: cell-based; settings: 37° C., 17 hours
Excerpt: as §1

[5] = tested on: Staphylococcus aureus 209P; assay: as above; assay type: cell-based; settings: for Minimum Inhibitory concentration: Staphylococcus aureus 209P, Mueller-Hinton agar, 37° C., 17 hours
Excerpt: as §1

[6] = tested on: Staphylococcus aureus Ap01; assay: as above; assay type: cell-based; settings: 37° C., 17 hours
Excerpt: as §1

[7] = tested on: Escherichia coli K-12 C600 R135; assay: as above; assay type: cell-based; settings: 17 hours; for Minimum Inhibitory concentration: 37° C.
Excerpt: as §1

Providencia Pv 16 = assay: as above; assay type: cell-based; settings: 17 hours; for Minimum Inhibitory concentration: 37° C.
Excerpt: as §1

[8] = tested on: Pseudomonas aeruginosa A3; assay: as above; assay type: cell-based; settings: 37° C., 17 hours
Excerpt: as §1

Escherichia coli JR225 = assay: as above; assay type: cell-based; settings: JR225, 17 h, read-out: Minimum Inhibitory concentration
Excerpt: as §1

[9] = tested on: Escherichia coli K-12 LA290 R55; assay: as above; assay type: cell-based; settings: K12LA290R55, 17 h, read-out: Minimum Inhibitory concentration
Excerpt: as §1

[10] = tested on: Escherichia coli K-12 ML1629; assay: as above; assay type: cell-based; settings: K12ML1629, 37° C., 17 hours
Excerpt: as §1

Escherichia coli K-12 R5 = assay: as above; assay type: cell-based; settings: K12R5, 17 h, read-out: Minimum Inhibitory concentration
Excerpt: as §1

Escherichia coli K-12 = assay: as above; assay type: cell-based; settings: K12, 37° C., 17 hours
Excerpt: as §1

[11] = Acute toxicity, intravenous, in mice; settings: mouse, in vivo, mice (ICR, adult female), single administration in saline
Protocol: Acute toxicity of the various N-methanesulfonic acid derivatives of 3-demethoxyistamycin B of the invention has been determined by the following procedure:
A test compound or substance was dissolved in 0.25 ml of a physiological saline solution and the solution of the test compound or substance so prepared was intravenously administered into a series of mouse groups each consisting of six mice (ICR strain, adult female, body weight 20 g±0.5 g) as the test animal, so that the test compound or substance was given to each mouse. Acute toxicity of 3-demethoxyistamycin B was also estimated in the same manner as above for the comparison purpose.

Compound	Minimum Inhibitory concentration [1]	Minimum Inhibitory concentration [2]	Minimum Inhibitory concentration [3]	Minimum Inhibitory concentration [4]	Minimum Inhibitory concentration (Serratia marcescens)	Minimum Inhibitory concentration [5]	Minimum Inhibitory concentration [6]	Minimum Inhibitory concentration [7]	Minimum Inhibitory concentration (Providencia Pv 16)	further results
3-demethoxyistamycin B-tri-N-methanesulfonic acid sodium salt [Compound (3)]	3.13 µg/mL	50 µg/mL	50 µg/mL	25 µg/mL	6.25 µg/mL	1.56 µg/mL	0.78 µg/mL			
3-demethoxyistamycin B-mono-N-methanesulfonic acid sodium salt [Compound (1)]		100 µg/mL	50 µg/mL	25 µg/mL				6.25 µg/mL		
3-demethoxyistamycin B-tetra-N-methanesulfonic acid sodium salt [Compound (4)]	6.25 µg/mL		50 µg/mL		3.13 µg/mL		1.56 µg/mL		1.56 µg/mL	
3-demethoxyistamycin B-di-N-methanesulfonicacid sodium salt [Compound (2)]	3.13 µg/mL	100 µg/mL	50 µg/mL	25 µg/mL	3.13 µg/mL	0.78 µg/mL	0.78 µg/mL	6.25 µg/mL	1.56 µg/mL	Minimum Inhibitory concentration [8]: 0.78 µg/mL
CNCC1CCC(N)C(OC2C(N)CCC(N(C)C(=O)CN)C2O)O1 (stereo not drawn) [3-Demethoxyistamycin B]										MIC (Escherichia coli JR225): 0.78 mg/L (≈ 2.17 µM); MIC [1]: 0.78 mg/L (≈ 2.17 µM); MIC ([7]; K12C600R135, 37° C.): 0.78 mg/L (≈ 2.17 µM); MIC [9]: 1.56 mg/L (≈ 4.34 µM); MIC [10]: 0.78 mg/L (≈ 2.17 µM); MIC (Escherichia coli K-12 R5): 1.56 mg/L (≈ 4.34 µM); MIC (Escherichia coli K-12): 0.78 mg/L (≈ 2.17 µM); MIC (Providencia Pv 16; PV16, 37° C.): 0.78 mg/L (≈ 2.17 µM); MIC [8]: 0.39 mg/L (≈ 1.08 µM); MIC [2]: 6.25 mg/L (≈ 17.4 µM); MIC [3]: 12.5 mg/L (≈ 34.8 µM); MIC ([4]; TI13, 37° C.): 6.25 mg/L (≈ 17.4 µM); MIC (Serratia marcescens): 0.78 mg/L (≈ 2.17 µM); MIC ([5]; Staphylococcus aureus, 209P, 17 h, read-out: Minimum Inhibitory concentration): < 0.2 mg/L; MIC [6]: 0.39 mg/L (≈ 1.08 µM); LD50 [11]: 100 to 200 mg/kg
